Species: Rattus norvegicus
Assay: Open TG-GATES - Regimen: Single
Assay type: toxicity, organism-based, Sprague-Dawley
Set-up: regimen Single, gender Male, age 6 weeks
Conditions: in vivo, po, 100 mg/kg, route gavage, dose level Middle; for APTT / Bas / Eos / Fbg / Hb / Ht / Lym / MCH / MCHC / MCV / Mono / Neu / PT / Plat / RBC / Ret / WBC: tissue Blood; for KIDNEY_L / KIDNEY_R / KIDNEY_TOTAL: tissue Kidney; for LIVER: tissue Liver; for A/G / ALP / ALT / AST / BUN / CRE / Ca / Cl / DBIL / GLC / IP / K / LDH / Na / PL / RALB / TBIL / TC / TG / TP / gamma-GTP: tissue Plasma

For `C[C@]12CCC(=O)C=C1CC[C@@H]1[C@@H]2CC[C@@]2(C)[C@H]1CC[C@]2(C)O` [METHYLTESTOSTERONE], the TERMINAL_BW (3 h) was 202.8 g, the APTT (3 h) was 15.1 s and the Bas (3 h) was 0%. It also gave an Eos (3 h) of 1%, a Fbg (3 h) of 298.8 mg/dL and a Hb (3 h) of 12.9 g/dL. For the same compound, the Ht (3 h) was 37.9%, the Lym (3 h) was 72.2% and the MCH (3 h) was 22.2 pg. For the same compound, the MCHC (3 h) was 34.1%, the MCV (3 h) was 65 fL and the Mono (3 h) was 4.2%. For the same compound, the Neu (3 h) was 22.4%, the PT (3 h) was 13.1 s and the Plat (3 h) was 111.5 x10_4/uL. It also gave an RBC (3 h) of 582.8 x10_4/ul, a Ret (3 h) of 8.9% and a WBC (3 h) of 65.4 x10_2/uL. The KIDNEY_L (3 h) was 0.9 g, the KIDNEY_R (3 h) was 0.9 g and the KIDNEY_TOTAL (3 h) was 1.8 g. It also gave an LIVER (3 h) of 9.3 g, an A/G (3 h) of 0.9 and an ALP (3 h) of 1276.2 IU/L. The ALT (3 h) was 45.6 IU/L, the AST (3 h) was 74 IU/L and the BUN (3 h) was 11 mg/dL. The CRE (3 h) was 0.2 mg/dL, the Ca (3 h) was 11 mg/dL and the Cl (3 h) was 106.2 meq/L. The DBIL (3 h) was 0.01 mg/dL, the GLC (3 h) was 184.8 mg/dL and the IP (3 h) was 9.6 mg/dL. It also gave a K (3 h) of 4.3 meq/L, an LDH (3 h) of 73.8 IU/L and a Na (3 h) of 141.2 meq/L. For the same compound, the PL (3 h) was 136.2 mg/dL, the RALB (3 h) was 2.5 g/dL and the TBIL (3 h) was 0.042 mg/dL. It also gave a TC (3 h) of 74 mg/dL, a TG (3 h) of 63 mg/dL and a TP (3 h) of 5.4 g/dL. For the same compound, the gamma-GTP (3 h) was 1 IU/L, the TERMINAL_BW (6 h) was 202.3 g and the APTT (6 h) was 16.9 s. For the same compound, the Bas (6 h) was 0%, the Eos (6 h) was 1% and the Fbg (6 h) was 274.4 mg/dL. The Hb (6 h) was 13 g/dL, the Ht (6 h) was 37.9% and the Lym (6 h) was 74.4%. The MCH (6 h) was 21.5 pg, the MCHC (6 h) was 34.3% and the MCV (6 h) was 62.6 fL. The Mono (6 h) was 3.6%, the Neu (6 h) was 20.8% and the PT (6 h) was 13.4 s. The Plat (6 h) was 103.9 x10_4/uL, the RBC (6 h) was 606.6 x10_4/ul and the Ret (6 h) was 8.3%. The WBC (6 h) was 68.3 x10_2/uL, the KIDNEY_L (6 h) was 0.9 g and the KIDNEY_R (6 h) was 0.9 g. The KIDNEY_TOTAL (6 h) was 1.8 g, the LIVER (6 h) was 8.3 g and the A/G (6 h) was 0.9. For the same compound, the ALP (6 h) was 1515.6 IU/L, the ALT (6 h) was 38 IU/L and the AST (6 h) was 75.6 IU/L. It also gave a BUN (6 h) of 9.4 mg/dL, a CRE (6 h) of 0.2 mg/dL and a Ca (6 h) of 10.7 mg/dL. For the same compound, the Cl (6 h) was 107.4 meq/L, the DBIL (6 h) was 0.014 mg/dL and the GLC (6 h) was 181.6 mg/dL. The IP (6 h) was 9.8 mg/dL, the K (6 h) was 4.3 meq/L and the LDH (6 h) was 56 IU/L. The Na (6 h) was 141.2 meq/L, the PL (6 h) was 126.4 mg/dL and the RALB (6 h) was 2.5 g/dL. It also gave a TBIL (6 h) of 0.048 mg/dL, a TC (6 h) of 64 mg/dL and a TG (6 h) of 49.4 mg/dL. It also gave a TP (6 h) of 5.3 g/dL, a gamma-GTP (6 h) of 1.2 IU/L and a TERMINAL_BW (9 h) of 203.2 g. The APTT (9 h) was 16.2 s, the Bas (9 h) was 0% and the Eos (9 h) was 1%. The Fbg (9 h) was 296 mg/dL, the Hb (9 h) was 13.2 g/dL and the Ht (9 h) was 38.4%. It also gave a Lym (9 h) of 76.8%, an MCH (9 h) of 21.5 pg and an MCHC (9 h) of 34.3%. It also gave an MCV (9 h) of 62.9 fL, a Mono (9 h) of 2.8% and a Neu (9 h) of 18.8%. The PT (9 h) was 13.5 s, the Plat (9 h) was 112.3 x10_4/uL and the RBC (9 h) was 611.6 x10_4/ul. It also gave a Ret (9 h) of 8.1%, a WBC (9 h) of 69 x10_2/uL and a KIDNEY_L (9 h) of 0.9 g. It also gave a KIDNEY_R (9 h) of 0.8 g, a KIDNEY_TOTAL (9 h) of 1.7 g and an LIVER (9 h) of 8.1 g. The A/G (9 h) was 0.9, the ALP (9 h) was 1516.6 IU/L and the ALT (9 h) was 37.8 IU/L. For the same compound, the AST (9 h) was 70.2 IU/L, the BUN (9 h) was 8.2 mg/dL and the CRE (9 h) was 0.2 mg/dL. It also gave a Ca (9 h) of 10.5 mg/dL, a Cl (9 h) of 107.6 meq/L and a DBIL (9 h) of 0.016 mg/dL. For the same compound, the GLC (9 h) was 177.6 mg/dL, the IP (9 h) was 10.4 mg/dL and the K (9 h) was 4.3 meq/L. The LDH (9 h) was 69.4 IU/L, the Na (9 h) was 141.8 meq/L and the PL (9 h) was 119.2 mg/dL. For the same compound, the RALB (9 h) was 2.5 g/dL, the TBIL (9 h) was 0.046 mg/dL and the TC (9 h) was 53.6 mg/dL. The TG (9 h) was 89.8 mg/dL, the TP (9 h) was 5.3 g/dL and the gamma-GTP (9 h) was 1.2 IU/L. For the same compound, the TERMINAL_BW (24 h) was 205.5 g, the APTT (24 h) was 16.9 s and the Bas (24 h) was 0%. For the same compound, the Eos (24 h) was 1%, the Fbg (24 h) was 278.2 mg/dL and the Hb (24 h) was 13.1 g/dL. For the same compound, the Ht (24 h) was 38.5%, the Lym (24 h) was 77.6% and the MCH (24 h) was 21.5 pg. For the same compound, the MCHC (24 h) was 34.1%, the MCV (24 h) was 62.9 fL and the Mono (24 h) was 3%. The Neu (24 h) was 18.2%, the PT (24 h) was 13.3 s and the Plat (24 h) was 117.9 x10_4/uL. The RBC (24 h) was 613 x10_4/ul, the Ret (24 h) was 7.7% and the WBC (24 h) was 94.4 x10_2/uL. The KIDNEY_L (24 h) was 0.9 g, the KIDNEY_R (24 h) was 0.9 g and the KIDNEY_TOTAL (24 h) was 1.8 g. It also gave an LIVER (24 h) of 9.5 g, an A/G (24 h) of 0.9 and an ALP (24 h) of 1929.2 IU/L. It also gave an ALT (24 h) of 51.2 IU/L, an AST (24 h) of 76.2 IU/L and a BUN (24 h) of 14.8 mg/dL. The CRE (24 h) was 0.2 mg/dL, the Ca (24 h) was 11.1 mg/dL and the Cl (24 h) was 105.6 meq/L. The DBIL (24 h) was 0.022 mg/dL, the GLC (24 h) was 189.2 mg/dL and the IP (24 h) was 8.5 mg/dL. The K (24 h) was 4.3 meq/L, the LDH (24 h) was 97.8 IU/L and the Na (24 h) was 140.6 meq/L. For the same compound, the PL (24 h) was 142 mg/dL, the RALB (24 h) was 2.6 g/dL and the TBIL (24 h) was 0.032 mg/dL. For the same compound, the TC (24 h) was 65.4 mg/dL, the TG (24 h) was 141 mg/dL and the TP (24 h) was 5.6 g/dL. The gamma-GTP (24 h) was 1.4 IU/L.
